# Activity calls are given as the source filed them. The calls are words filed in the database; no cut-off is given here.
# Legend:
# [1] = Half life in Sprague-Dawley rat at 5 mg/kg, iv; type: ADME, organism-based; settings: in vivo
# HCT-116 = assay: Antitumor immunity in BALB/c mouse xenografted with human HCT-116 cells assessed as early Treg cells in tumor-draining lymph nodes by propidium iodide staining based flow cytometry analysis (reference value: 7.24 %); type: functional
# [2] = target: CDC7/DBF4 (Cell division cycle 7-related protein kinase/Activator of S phase kinase) (Homo sapiens) (UniProt Q9UBU7+O00311); assay: Inhibition of CDC7/DBF4 (unknown origin) at 1 uM; type: protein-complex assay
# Chain of CDC7/DBF4 (Cell division cycle 7-related protein kinase/Activator of S phase kinase) (Homo sapiens) (O00311 whole entry, looked up): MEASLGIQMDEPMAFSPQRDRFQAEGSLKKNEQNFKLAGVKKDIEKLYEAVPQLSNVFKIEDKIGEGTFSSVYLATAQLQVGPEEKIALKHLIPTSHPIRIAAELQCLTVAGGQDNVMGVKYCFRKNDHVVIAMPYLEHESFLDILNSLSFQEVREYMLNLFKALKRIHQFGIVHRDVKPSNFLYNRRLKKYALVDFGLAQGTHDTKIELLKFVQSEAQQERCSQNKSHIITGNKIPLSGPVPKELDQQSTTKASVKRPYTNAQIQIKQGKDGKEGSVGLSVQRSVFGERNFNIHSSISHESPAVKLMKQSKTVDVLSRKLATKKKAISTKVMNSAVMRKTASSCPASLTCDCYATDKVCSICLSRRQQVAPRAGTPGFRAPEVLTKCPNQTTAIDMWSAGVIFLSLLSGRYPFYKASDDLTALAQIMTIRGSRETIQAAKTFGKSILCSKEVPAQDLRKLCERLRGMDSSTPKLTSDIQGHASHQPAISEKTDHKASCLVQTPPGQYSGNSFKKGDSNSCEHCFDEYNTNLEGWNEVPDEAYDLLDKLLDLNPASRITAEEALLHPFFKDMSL
# Chain of CDC7/DBF4 (Cell division cycle 7-related protein kinase/Activator of S phase kinase) (Homo sapiens) (Q9UBU7 whole entry, looked up): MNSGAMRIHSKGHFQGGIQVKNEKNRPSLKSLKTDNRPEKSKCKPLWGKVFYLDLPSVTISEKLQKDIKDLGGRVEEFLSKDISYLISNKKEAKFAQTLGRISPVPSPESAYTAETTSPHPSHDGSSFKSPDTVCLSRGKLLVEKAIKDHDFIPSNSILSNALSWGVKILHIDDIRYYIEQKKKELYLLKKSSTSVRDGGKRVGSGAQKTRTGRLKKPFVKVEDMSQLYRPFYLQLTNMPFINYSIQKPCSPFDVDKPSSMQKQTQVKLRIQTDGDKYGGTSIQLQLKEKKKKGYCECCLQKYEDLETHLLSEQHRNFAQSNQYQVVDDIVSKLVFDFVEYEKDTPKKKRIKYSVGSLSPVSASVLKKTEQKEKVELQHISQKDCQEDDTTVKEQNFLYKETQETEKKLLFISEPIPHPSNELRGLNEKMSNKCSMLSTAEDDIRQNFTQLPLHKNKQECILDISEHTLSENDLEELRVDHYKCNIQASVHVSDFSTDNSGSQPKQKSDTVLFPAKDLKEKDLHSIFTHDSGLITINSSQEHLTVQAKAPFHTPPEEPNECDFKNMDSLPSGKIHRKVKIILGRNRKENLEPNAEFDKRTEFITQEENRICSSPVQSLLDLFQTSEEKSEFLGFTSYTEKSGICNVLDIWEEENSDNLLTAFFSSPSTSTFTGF
# [3] = target: Tyrosine-protein kinase Lyn (Homo sapiens) (UniProt P07948); assay: Inhibition of LYN (unknown origin) at 1 uM
# [4] = target: Serine/threonine-protein kinase MRCK alpha (Homo sapiens) (UniProt Q5VT25); assay: Inhibition of MRCKalpha (unknown origin) at 1 uM
# Chain of Serine/threonine-protein kinase MRCK alpha (Homo sapiens) (Q5VT25 whole entry): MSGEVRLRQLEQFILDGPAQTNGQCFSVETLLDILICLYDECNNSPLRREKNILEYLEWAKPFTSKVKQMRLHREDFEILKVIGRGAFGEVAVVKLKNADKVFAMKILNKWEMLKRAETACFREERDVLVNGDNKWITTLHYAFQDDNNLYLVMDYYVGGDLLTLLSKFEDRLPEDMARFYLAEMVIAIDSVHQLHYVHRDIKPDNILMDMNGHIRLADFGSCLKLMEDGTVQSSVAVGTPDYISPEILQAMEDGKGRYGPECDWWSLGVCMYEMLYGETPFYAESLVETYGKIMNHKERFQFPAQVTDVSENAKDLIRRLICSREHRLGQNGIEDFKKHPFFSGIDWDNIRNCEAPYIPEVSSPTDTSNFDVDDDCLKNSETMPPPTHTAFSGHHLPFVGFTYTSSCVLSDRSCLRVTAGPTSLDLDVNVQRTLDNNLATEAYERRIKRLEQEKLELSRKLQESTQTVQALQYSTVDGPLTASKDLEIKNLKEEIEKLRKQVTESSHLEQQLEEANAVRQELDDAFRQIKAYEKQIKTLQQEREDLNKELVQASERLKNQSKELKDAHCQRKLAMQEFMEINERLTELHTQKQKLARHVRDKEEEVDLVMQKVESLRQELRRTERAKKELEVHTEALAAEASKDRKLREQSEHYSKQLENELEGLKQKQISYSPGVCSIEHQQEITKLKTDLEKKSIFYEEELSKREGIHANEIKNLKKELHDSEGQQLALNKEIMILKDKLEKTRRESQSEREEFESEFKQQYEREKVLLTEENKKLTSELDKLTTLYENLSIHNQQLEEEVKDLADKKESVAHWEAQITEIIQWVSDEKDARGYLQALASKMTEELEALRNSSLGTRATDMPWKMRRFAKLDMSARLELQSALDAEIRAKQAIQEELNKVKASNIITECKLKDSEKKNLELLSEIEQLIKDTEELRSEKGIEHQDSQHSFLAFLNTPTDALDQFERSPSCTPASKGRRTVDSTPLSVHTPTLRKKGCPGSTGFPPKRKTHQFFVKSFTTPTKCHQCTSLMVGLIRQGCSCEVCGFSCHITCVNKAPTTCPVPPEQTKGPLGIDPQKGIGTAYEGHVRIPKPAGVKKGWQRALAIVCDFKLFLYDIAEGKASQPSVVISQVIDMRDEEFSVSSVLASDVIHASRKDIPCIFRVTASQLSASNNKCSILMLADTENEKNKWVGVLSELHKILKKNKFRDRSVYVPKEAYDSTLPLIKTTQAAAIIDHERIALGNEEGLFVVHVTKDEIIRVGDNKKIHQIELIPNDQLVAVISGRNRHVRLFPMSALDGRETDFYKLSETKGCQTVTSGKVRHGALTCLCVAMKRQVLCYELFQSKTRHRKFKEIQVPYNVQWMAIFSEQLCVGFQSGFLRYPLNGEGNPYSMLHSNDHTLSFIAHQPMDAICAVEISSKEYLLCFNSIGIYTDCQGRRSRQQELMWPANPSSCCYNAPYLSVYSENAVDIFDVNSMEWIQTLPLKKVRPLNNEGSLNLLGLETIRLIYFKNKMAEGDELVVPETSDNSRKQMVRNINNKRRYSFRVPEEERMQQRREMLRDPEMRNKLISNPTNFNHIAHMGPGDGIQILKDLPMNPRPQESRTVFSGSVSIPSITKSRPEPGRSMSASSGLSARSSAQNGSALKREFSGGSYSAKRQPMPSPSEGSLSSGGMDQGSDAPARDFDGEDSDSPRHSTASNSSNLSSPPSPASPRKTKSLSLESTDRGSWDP
# [5] = target: Mitogen-activated protein kinase 11 (Homo sapiens) (UniProt Q15759); assay: Inhibition of p38beta (unknown origin) at 1 uM
# Chain of Mitogen-activated protein kinase 11 (Homo sapiens) (Q15759 whole entry): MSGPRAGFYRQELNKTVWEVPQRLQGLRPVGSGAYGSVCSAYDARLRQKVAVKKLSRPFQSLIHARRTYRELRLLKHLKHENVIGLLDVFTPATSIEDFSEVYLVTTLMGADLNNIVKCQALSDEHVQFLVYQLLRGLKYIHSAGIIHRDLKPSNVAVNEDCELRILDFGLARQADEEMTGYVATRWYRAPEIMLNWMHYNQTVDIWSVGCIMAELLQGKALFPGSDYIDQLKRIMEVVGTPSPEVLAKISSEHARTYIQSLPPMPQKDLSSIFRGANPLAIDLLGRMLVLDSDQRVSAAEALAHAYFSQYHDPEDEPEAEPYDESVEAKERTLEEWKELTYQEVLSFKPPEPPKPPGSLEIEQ
# [6] = target: Dual specificity testis-specific protein kinase 2 (Homo sapiens) (UniProt Q96S53); assay: Inhibition of TESK2 (unknown origin) at 1 uM
# Chain of Dual specificity testis-specific protein kinase 2 (Homo sapiens) (Q96S53 whole entry, looked up): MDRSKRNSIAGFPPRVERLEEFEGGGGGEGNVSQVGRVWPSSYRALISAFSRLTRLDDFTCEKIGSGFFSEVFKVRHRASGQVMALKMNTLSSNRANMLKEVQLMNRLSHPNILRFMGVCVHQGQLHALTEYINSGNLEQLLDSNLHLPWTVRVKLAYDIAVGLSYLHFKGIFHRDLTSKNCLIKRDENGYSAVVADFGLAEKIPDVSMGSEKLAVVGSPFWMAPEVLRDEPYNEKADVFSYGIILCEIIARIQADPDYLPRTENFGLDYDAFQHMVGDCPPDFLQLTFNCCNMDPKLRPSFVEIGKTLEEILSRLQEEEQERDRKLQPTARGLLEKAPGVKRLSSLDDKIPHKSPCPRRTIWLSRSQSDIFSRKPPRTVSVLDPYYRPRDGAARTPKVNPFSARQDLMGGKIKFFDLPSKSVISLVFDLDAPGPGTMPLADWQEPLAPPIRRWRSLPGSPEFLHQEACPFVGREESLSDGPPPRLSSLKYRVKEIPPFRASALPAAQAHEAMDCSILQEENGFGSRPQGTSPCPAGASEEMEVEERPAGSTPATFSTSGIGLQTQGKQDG
# [7] = target: Serine/threonine-protein kinase tousled-like 2 (Homo sapiens) (UniProt Q86UE8); assay: Inhibition of TLK2 (unknown origin) at 1 uM
# Chain of Serine/threonine-protein kinase tousled-like 2 (Homo sapiens) (Q86UE8 whole entry, looked up): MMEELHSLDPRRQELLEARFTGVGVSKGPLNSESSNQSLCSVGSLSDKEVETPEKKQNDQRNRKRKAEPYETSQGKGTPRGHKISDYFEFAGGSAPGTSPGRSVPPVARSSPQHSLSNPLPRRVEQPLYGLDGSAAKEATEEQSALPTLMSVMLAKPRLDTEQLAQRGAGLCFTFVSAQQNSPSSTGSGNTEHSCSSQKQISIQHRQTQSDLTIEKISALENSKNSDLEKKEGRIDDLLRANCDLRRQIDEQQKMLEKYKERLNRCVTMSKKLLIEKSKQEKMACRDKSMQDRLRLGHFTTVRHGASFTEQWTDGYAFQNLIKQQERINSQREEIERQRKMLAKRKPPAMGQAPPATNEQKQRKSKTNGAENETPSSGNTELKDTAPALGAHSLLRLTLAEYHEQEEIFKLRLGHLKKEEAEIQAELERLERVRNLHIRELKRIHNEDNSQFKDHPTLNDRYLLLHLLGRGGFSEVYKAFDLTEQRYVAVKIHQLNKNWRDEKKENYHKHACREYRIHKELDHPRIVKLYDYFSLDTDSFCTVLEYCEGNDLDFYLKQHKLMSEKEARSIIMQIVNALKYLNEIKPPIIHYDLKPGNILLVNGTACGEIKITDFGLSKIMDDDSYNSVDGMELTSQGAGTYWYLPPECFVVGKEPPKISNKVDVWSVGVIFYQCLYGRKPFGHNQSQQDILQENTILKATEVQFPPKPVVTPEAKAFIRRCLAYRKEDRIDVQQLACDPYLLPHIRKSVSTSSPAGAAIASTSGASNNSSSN
structure (smiles),measurement,setting,value
OCCOCc1cn(CCNc2nonc2/C(=N/O)Nc2ccc(F)c(Br)c2)nn1,half-life,[1],36.6 min
same,Activity,HCT-116,3.84%
same,inhibition,[2],inactive
same,inhibition,[3],inactive
same,inhibition,[4],inactive
same,inhibition,[5],inactive
same,inhibition,[6],inactive
same,inhibition,[7],inactive

# Reference: ChEMBL document CHEMBL5055685, “Discovery of the First Potent IDO1/IDO2 Dual Inhibitors: A Promising Strategy for Cancer Immunotherapy” (J Med Chem, 2021)
